The source of these data is patent US20210029993A1, “SPATIAL INHIBITORS, DETERRENTS AND REPELLENTS FOR MOSQUITOES AND MIDGES” (BEDOUKIAN RESEARCH, INC., priority 2005, published 2021).

Common to all, as to type: in vivo
For assay [1], the system named is female biting midges (Culicoides impunctatus). Kind of assay: Biting midges flying test (Plexiglas module). The settings on record: control = 1, higher = more inhibitor activity. Here is the method:
The following tests are employed to illustrate the efficacy of the compounds of this disclosure to effectively act as biting midge deterrents, repellents or as spatial inhibitors for biting midges. […] Biting midges are tested in a two-piece Plexiglas module designed to assess their response to feeding deterrents. […] Water (40° C.) flows through the central cavity of the platform at a rate of 215 ml/min. The top piece of the module consists of six 4.5×4.0×5.0 cm chambers, the floors of which are fitted with a sliding door positioned over a circular opening 3.5 cm in diameter. Biting midges are introduced through an aperture 1 cm in diameter on the front wall of the chambers. For each test, five female biting midges (Culicoides impunctatus) are aspirated into each of five chambers of the top module piece and the apertures are plugged with corks wrapped in plastic film. […] To each well, 77.5 μl of green dye (McCormick Food, Hunt Valley, Md.) are added so that those biting midges imbibing the sugar solution can be identified when crushed at the end of the tests. Each membrane receives 50 μl of acetone or experimental compound solution, applied to 9.6 cm^2 circular area on 0.1 mm-thick membranes made of nylon mesh in a silicone matrix. The membranes are then placed over each well in contact with the sugar solution. The circular openings on the floor of each chamber of the top piece of the module are aligned with each membrane-covered well of the bottom piece. The sliding floors of the chambers are then opened allowing biting midges access to the membranes. The number of biting midges landing on the membranes, and those flying within the apparatus, are recorded each minute for five minutes. After five minutes, any biting midges remaining on the membranes are removed with a metal wire, and the door of the floor of each chamber is closed. The top piece of the module is then placed into a freezer for 20 minutes. In the test designed to assess feeding, biting midges are removed from the frozen module, crushed on white paper towels, and examined for the presence of green dye to indicate that feeding had occurred. The proportions of biting midges feeding per trial are analyzed using a standard generalized linear model with a logit link. Landing and flying scores are repeated measures; five readings are obtained for groups of five biting midges. Thus, to maintain independence among the data, the five readings are summed, and then the sums divided by 25 (the maximum score in each category) to create proportions of biting midges landing and flying. The proportions are then transferred using the standard variance stabilizing transformation for proportions (sin^−1 √y, where y is the proportion), and analyzed using ANOVA (Analysis of Variables). In Table 5, weight percent (wt %) refers to the weight of the deterring/repelling/inhibiting compound, or combination of compounds, in the composition used in the tests. […] The weight ratio of the compounds in the combination of compounds is given in parentheses in the “Compound(s)” column of Table 5.

For assay [2], the system named is female mosquitoes (Aedes aegypti). Put plainly: Mosquitoes flying test (Plexiglas module, mosquitoes flying within the apparatus). Particulars: for Flying Relative To Control: control = 1, higher = more inhibitor activity; for spatial inhibitor activity for mosquitoes (flying tests, FIGS. 2 and 4), in words: flying relative to control. On the procedure:
(§1) The test was conducted at 0900-2100 hours in a walk-in incubator (26° C., 63-80% RH) illuminated by fluorescent lights. Mosquitoes were tested in a two-piece Plexiglas module designed to assess their response to feeding deterrents. The bottom piece of the module was 40×7×4-cm hollow platform supporting six circular wells (diameter=3.8 cm, depth=6 mm). Water (40° C.) flowed through the central cavity of the platform at a rate of 215 ml/min. The top piece of the module consisted of six 4.5×4.0×5.0 cm chambers, the floors of which were fitted with a sliding door positioned over a circular opening 3.5 cm in diameter. Mosquitoes were introduced through an aperture 1 cm in diameter on the front wall of the chambers. For each test, five female mosquitoes (Aedes aegypti) were aspirated into each of five chambers of the top module piece and the apertures were plugged with corks wrapped in plastic film. The wells on the bottom piece of the module were filled with 7 ml of 10% sucrose solution containing ATP (2.9 mg/ml). To each well, 75 μl of green dye (McCormick Food, Hunt Valley, Md.) were added so that those mosquitoes imbibing the sugar solution could be identified when crushed at the end of the tests. Each membrane received 50 ul of acetone or experimental compound solution, applied to 9.6 cm^2 circular area on 0.1 mm-thick membranes made of nylon mesh in a silicone matrix. The membranes were then placed over each well in contact with the sugar solution.
(§2) The circular openings on the floor of each chamber of the top piece of the module were aligned with each membrane-covered well of the bottom piece. The sliding floors of the chambers were then opened allowing mosquitoes access to the membranes. The number of mosquitoes landing on the membranes, and those flying within the apparatus, were recorded each minute for five minutes. After five minutes, any mosquitoes remaining on the membranes were removed with a metal wire, and the door of the floor of each chamber was closed. The top piece of the module was then placed into a freezer for 20 minutes. In the test designed to assess feeding, mosquitoes were removed from the frozen module, crushed on white paper towels, and examined for the presence of green dye to indicate that feeding had occurred. The proportions of mosquitoes feeding per trial were analyzed using a standard generalized linear model with a logit link. Landing and flying scores are repeated measures; five reading were obtained for groups of five mosquitoes. Thus, to maintain independence among the data, the five readings were summed, and then the sums divided by 25 (the maximum score in each category) to create proportions of mosquitoes landing and flying. The proportions were then transferred using the standard variance stabilizing transformation for proportions (sin^−1 √y, where y is the proportion), and analyzed using ANOVA (Analysis of Variables)
In Table 2, weight percent (wt %) refers to the weight of the deterring/repelling/inhibiting compound, or combination of compounds, in the composition used in the tests. […] The weight ratio of the compounds in the combination of compounds is given in parentheses in the “Compound(s)” column of Table 2.

The test system is the same in assay [3]. Kind of assay: Mosquitoes feeding test (Plexiglas module, treated membrane over dyed sucrose/ATP solution). Particulars: for Feeding Relative To Control: control = 1.00, lower = more repellent; for contact mosquito repellent activity (feeding tests, FIGS. 1 and 3), in words: feeding relative to control. On the procedure: as §1, §2
In Table 1, weight percent (wt %) refers to the weight of the deterring/repelling/inhibiting compound, or combination of compounds, in the composition used in the tests. […] The weight ratio of the compounds in the combination of compounds is given in parentheses in the “Compound(s)” column of Table 1.

[4] abbreviates: 77.5 wt % compound(s) in composition.
Setting [5] is: 80 wt % compound(s) in composition.
Setting [6] is: 90 wt % compound(s) in composition.
Setting [7] is: 87.5 wt % compound(s) in composition.
The mark [8] stands for this setting: 82.5 wt % compound(s) in composition.

As for `C=C(C)[C@H]1CC=C(C)C(=O)C1` [d-Carvone], the “Flying Relative To Control” value worked out at 1.55 in assay [1] (setting [4]) and 1.95 in assay [2] (setting [4]). For the same compound, the “spatial inhibitor activity for mosquitoes (flying tests, FIGS. 2 and 4), in words” value (“spatial inhibitor activity” for short) in assay [2] is recorded as “particularly effective as spatial inhibitors for mosquitoes”. In addition, the “Feeding Relative To Control” value in assay [3] (setting [4]) is given as 0.64. In addition, the “contact mosquito repellent activity (feeding tests, FIGS. 1 and 3), in words” value (“contact mosquito repellent activity” for short) in assay [3] is on record as “especially effective as contact mosquito repellents”.
On to `C=C[C@@](C)(O)CCC=C(C)C` [d-Linalool, reference compound], for which the results for the “Flying Relative To Control” value in assay [1] (setting [5]) and in assay [2] (setting [5]) were 1.35 and 1.25, respectively. Moreover, the “Feeding Relative To Control” value in assay [3] (setting [5]) is reported as 0.32.
In the case of `CC1=CCC(C(C)(C)O)CC1` (stereo not drawn) [α-terpineol], the “Flying Relative To Control” value in assay [1] (setting [6]) was 1.5; in assay [2] (setting [6]) it was 1.15. In assay [2], the “spatial inhibitor activity” value is listed as “particularly effective as spatial inhibitors for mosquitoes”. The “Feeding Relative To Control” value in assay [3] (setting [6]) came out at 0.80. Besides, the “contact mosquito repellent activity” value in assay [3] is given as “especially effective as contact mosquito repellents”.
On to (+) Limonene oxide, for which the “Flying Relative To Control” value in assay [1] (setting [7]) turned out to be 0.95; in assay [2] (setting [7]) it was 0.90. For the same compound, the “Feeding Relative To Control” value in assay [3] (setting [7]) stood at 0.78.
Consider l-Carvone, for which the “Flying Relative To Control” value stood at 1.65 in assay [1] (setting [8]) and 1.75 in assay [2] (setting [8]). Further, in assay [2], the “spatial inhibitor activity” value was “particularly effective as spatial inhibitors for mosquitoes”. In addition, the “Feeding Relative To Control” value in assay [3] (setting [8]) came out at 0.62. Besides, in assay [3], the “contact mosquito repellent activity” value was “especially effective as contact mosquito repellents”.
